Active and inactive are the calls of the source. The calls are words filed in the database; no cut-off is given here.
Key:
CRMM-2 = assay: Antiproliferative activity against human CRMM-2 cells assessed as cell growth inhibition incubated for 72 hrs by CCK8 assay; assay type: functional, cell-based; conditions: CRMM-2, 72 h
[1] = Antiproliferative activity against human HL7702 cells assessed as cell growth inhibition incubated for 72 hrs by CCK8 assay; assay type: toxicity, cell-based; conditions: HL7702 (L02) cells
[2] = Antiproliferative activity against human PIG1 cells assessed as cell growth inhibition incubated for 72 hrs by CCK8 assay; assay type: toxicity, cell-based
[3] = Antiproliferative activity against human CM-AS16 cells assessed as cell growth inhibition incubated for 72 hrs by CCK8 assay; assay type: functional, cell-based; conditions: CM-AS16, 72 h
[4] = Inhibition of homologous recombination in human CRMM-1 cells at 10 uM incubated for 12 hrs by real-time PCR analysis relative to control; assay type: functional
[5] = Antiproliferative activity against human CM2005.1 cells assessed as cell growth inhibition incubated for 72 hrs by CCK8 assay; assay type: functional, cell-based; conditions: CM2005.1, 72 h
CRMM-1 [6] = assay: Antiproliferative activity against human CRMM-1 cells assessed as cell growth inhibition incubated for 72 hrs by CCK8 assay; assay type: functional, cell-based; conditions: CRMM-1, 72 h
CRMM-1 [7] = assay: Inhibition of homologous recombination in human CRMM-1 cells at 10 uM incubated for 12 hrs by real-time PCR analysis; assay type: functional, cell-based

Row | SMILES | IC50 (CRMM-2) [µM] | IC50 at 72 h [1] [µM] | IC50 at 72 h [2] [µM] | IC50 [3] [µM] | inhibition at 10 µM [4] [%] | IC50 [5] [µM] | IC50 (CRMM-1 [6]) [µM] | inhibition (CRMM-1 [7])
1 | CCCNCCCOc1ccccc1C(=O)CCc1ccccc1 | 35.9 | 64.8 | 66.4 | 10 | 65 | 68.5 | 54.5 | –
2 | CCC(=O)NCCCOc1ccc2ccccc2c1C(=O)CCCc1ccccc1 | 9.3 | 29.5 | 19.5 | 9 | 35 | 37.7 | 8.2 | –
3 | CCCN(C)CC(O)COc1ccccc1C(=O)CCc1ccccc1 (configuration not stated) | 14.6 | 97.2 | 71.9 | 22.6 | 30.3 | 61.2 | 48.7 | –
4 | O=C(CCCc1ccccc1)c1c(OCCCNC2CC2)ccc2ccccc12 | 16.4 | 32.4 | 8 | 14.2 | 29.3 | 10.4 | 10.3 | –
5 | CCCCNCCCOc1ccccc1C(=O)CCCc1ccccc1 | 1.1 | 3.7 | 9.1 | 4.9 | 38.3 | 5.4 | 1.8 | –
6 | CC(C)(C)C(=O)NCCCOc1ccc2ccccc2c1C(=O)CCCc1ccccc1 | 29.6 | 39.9 | 14.2 | – | 55 | 35.9 | 13.1 | –
7 | CCCNCCCOc1cc2ccccc2cc1C(=O)CCCc1ccccc1 | 6.7 | 11.9 | 13.6 | 6.8 | 67.1 | 6.6 | 10.4 | –
8 | CCCNCCCOc1cc2c(cc1C(=O)CCCc1ccccc1)OCO2 | 8.2 | 32.7 | 15.5 | 10.8 | 43 | 6.8 | 6.9 | –
9 | O=C(CCCc1ccccc1)c1c(OCCCN2CCOCC2)ccc2ccccc12 | 4.2 | 31.8 | 18.3 | 4.2 | 83.2 | 1 | 2.3 | –
10 | CCCNCC(O)COc1ccccc1C(=O)NCc1ccccc1 (configuration not stated) | – | – | – | > 100 | – | – | – | –
11 | CCCCCCCNCCCOc1ccccc1C(=O)CCCc1ccccc1 | 0.6 | 0.7 | 0.5 | 6.3 | 64.8 | 1.3 | 1.1 | –
12 | Cc1cncc(COc2ccc3ccccc3c2C(=O)CCCc2ccccc2)c1 | 38.3 | 95.4 | 29.1 | – | 47.1 | 33 | 21.5 | –
13 | CCCNCCCOc1c(C(=O)CCCc2ccccc2)ccc2ccccc12 | 7.5 | 28.4 | 14.5 | 10.8 | 59.3 | 11.7 | 7.2 | –
14 | O=C(CCCc1ccccc1)c1c(OCCCn2cccc2)ccc2ccccc12 | 50.6 | 95.5 | 75.2 | – | – | 99.2 | 75.9 | –
15 | CCCCCCNCCCOc1ccccc1C(=O)CCCc1ccccc1 | 1.6 | 10.6 | 9.2 | 5.9 | 57.2 | 15.8 | 6.5 | –
16 | CCCN1CC(COc2ccccc2C(=O)CCc2ccccc2)OC1=O (configuration not stated) | – | – | – | > 100 | – | – | – | inactive
17 | CCCNCC(O)COc1ccccc1C(O)CCc1ccccc1 (configuration not stated) | 14.9 | 71.5 | 89.6 | 18.7 | 15.7 | 73.3 | 55.4 | –
18 | CN1CCN(CCCOc2ccc3ccccc3c2C(=O)CCCc2ccccc2)CC1 | 4.2 | 10.5 | 10.4 | 5.2 | 54.2 | 5.9 | 5.6 | –
19 | CCCOCC(O)COc1ccccc1C(=O)CCc1ccccc1 (configuration not stated) | 28.9 | 65 | 73.8 | 13.7 | 20.1 | 53 | 20.9 | –
20 | CCCNCCCOc1cccc2cccc(C(=O)CCCc3ccccc3)c12 | 5.9 | 10.2 | 6.8 | 8.8 | 59 | 8.4 | 9.8 | –
21 | CCCNCCCOc1ccccc1C(=O)CCCc1ccccc1 | 3.2 | 32.9 | 1.7 | 2.1 | 71.6 | 2.6 | 2 | –

From ChEMBL document CHEMBL5385901, “Drug repurposing of propafenone to discover novel anti-tumor agents by impairing homologous recombination to delay DNA damage recovery of rare disease conjunctival melanoma” (Eur J Med Chem, 2023)
